# According to the supplement of paper PMC4862054:
# Experiments:
# Conditions in all cases: incubation time: 72 h
# CAL-51 [1] = assay: normalised response (% of control), CellTox Green; higher = less cell death (100 = DMSO, 0 = benzethonium chloride kill control)
# In short: (§1)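 Two readouts were taken after 72 h: CellTox Green fluorescence (485/520 nm) first, then CellTiter-Glo luminescence after 10 min at room temperature. Breast cancer cell lines had been seeded as 20 µl suspension into 384-well plates holding compound at 5 concentrations in 10-fold steps across a compound-specific 10,000-fold range. Each value is a normalised signal at a single concentration, with plates scaled to 0.1 % DMSO (100) and a positive kill control (0).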
# BT-474 [2] = assay: as above
# In short: as §1
# MDA-MB-231 [3] = assay: as above
# In short: as §1
# MDA-MB-453 [4] = assay: as above
# In short: as §1
# HDQ-P1 [5] = assay: as above
# In short: as §1
# MCF-10A [6] = assay: as above
# In short: as §1
# MDA-MB-468 [7] = assay: as above
# In short: as §1
# HCC1937 [8] = assay: as above
# In short: as §1
# MDA-MB-436 [9] = assay: as above
# In short: as §1
# CAL-85-1 [10] = assay: as above
# In short: as §1
# Hs578T [11] = assay: as above
# In short: as §1
# MFM-223 [12] = assay: as above
# In short: as §1
# DU-4475 [13] = assay: as above
# In short: as §1
# CAL-120 [14] = assay: as above
# In short: as §1
# HCC1599 [15] = assay: as above
# In short: as §1
# HCC1143 [16] = assay: as above
# In short: as §1
# BT-549 [17] = assay: as above
# In short: as §1
# CAL-51 [18] = assay: normalised response (% of control), CellTiter-Glo; higher = more viable cells (100 = DMSO, 0 = benzethonium chloride kill control)
# Experimental: (§2)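 DSRT, 72 h incubation, CellTox Green / CellTiter-Glo readout. Signal is normalised to DMSO and benzethonium chloride controls. Value is the normalised response at dose 3.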
# BT-474 [19] = assay: as above
# Experimental: as §2
# MDA-MB-231 [20] = assay: as above
# Experimental: as §2
# CAL-148 [21] = assay: as above
# Experimental: as §2
# MDA-MB-453 [22] = assay: as above
# Experimental: as §2
# HDQ-P1 [23] = assay: as above
# Experimental: as §2
# MCF-10A [24] = assay: as above
# Experimental: as §2
# MDA-MB-468 [25] = assay: as above
# Experimental: as §2
# HCC1937 [26] = assay: as above
# Experimental: as §2
# MDA-MB-436 [27] = assay: as above
# Experimental: as §2
# SK-BR-3 = assay: as above
# Experimental: as §2
# CAL-85-1 [28] = assay: as above
# Experimental: as §2
# Hs578T [29] = assay: as above
# Experimental: as §2
# MFM-223 [30] = assay: as above
# Experimental: as §2
# DU-4475 [31] = assay: as above
# Experimental: as §2
# CAL-120 [32] = assay: as above
# Experimental: as §2
# HCC1599 [33] = assay: as above
# Experimental: as §2
# HCC1143 [34] = assay: as above
# Experimental: as §2
# BT-549 [35] = assay: as above
# Experimental: as §2
# CAL-148 [36] = assay: normalised response (% of control), CellTox Green; higher = less cell death (100 = DMSO, 0 = benzethonium chloride kill control)
# In short: as §1
SMILES,normalised response (CAL-51 [1]) [%],normalised response (BT-474 [2]) [%],normalised response (MDA-MB-231 [3]) [%],normalised response (MDA-MB-453 [4]) [%],normalised response (HDQ-P1 [5]) [%],normalised response (MCF-10A [6]) [%],normalised response (MDA-MB-468 [7]) [%],normalised response (HCC1937 [8]) [%],normalised response (MDA-MB-436 [9]) [%],normalised response (CAL-85-1 [10]) [%],normalised response (Hs578T [11]) [%],normalised response (MFM-223 [12]) [%],normalised response (DU-4475 [13]) [%],normalised response (CAL-120 [14]) [%],normalised response (HCC1599 [15]) [%],normalised response (HCC1143 [16]) [%],normalised response (BT-549 [17]) [%],normalised response (CAL-51 [18]) [%],normalised response (BT-474 [19]) [%],normalised response (MDA-MB-231 [20]) [%],normalised response (CAL-148 [21]) [%],normalised response (MDA-MB-453 [22]) [%],normalised response (HDQ-P1 [23]) [%],normalised response (MCF-10A [24]) [%],normalised response (MDA-MB-468 [25]) [%],normalised response (HCC1937 [26]) [%],normalised response (MDA-MB-436 [27]) [%],normalised response (SK-BR-3) [%],normalised response (CAL-85-1 [28]) [%],normalised response (Hs578T [29]) [%],normalised response (MFM-223 [30]) [%],normalised response (DU-4475 [31]) [%],normalised response (CAL-120 [32]) [%],normalised response (HCC1599 [33]) [%],normalised response (HCC1143 [34]) [%],normalised response (BT-549 [35]) [%],normalised response (CAL-148 [36]) [%]
CC[C@@H]1C(=O)N(C)c2cnc(Nc3ccc(C(=O)NC4CCN(C)CC4)cc3OC)nc2N1C1CCCC1 [BI 2536] (10 nM),51.3,78.1,10.1,101,55.5,64.3,56.6,116,51.6,65.3,89.4,73,97.5,88.2,101,97.8,-328,67.2,74.3,51.4,55.6,70.5,78.4,82.4,37.3,84.8,44.2,15.6,43.9,83.9,44.3,85.2,70.5,92.6,55.7,37,
C=CC(=O)Nc1cc2c(Nc3ccc(F)c(Cl)c3)ncnc2cc1OCCCN1CCOCC1 [Canertinib] (100 nM),98.2,84.4,107,102,51.8,106,136,108,107,72.3,109,99.3,105,97.6,114,94.3,75.7,60.2,95.3,103,97.5,91.9,70.9,43.9,76.6,84.5,96.6,46.4,69.1,97.4,99.1,102,99.5,85.5,95.7,93.9,104
O=C(O)C1(C(=O)O)CCC1.[NH2-].[NH2-].[Pt+2] [Carboplatin] (100 nM),90.7,103,101,97.6,88.8,86.2,61.5,75.2,103,108,95.5,96.8,105,104,100,89.6,78.9,93.7,102,100,102,94.7,99,107,93.9,94.2,103,105,98,99.9,99.2,99.5,99.1,87.6,101,93,103
COc1cc2c(Oc3ccc4[nH]c(C)cc4c3F)ncnc2cc1OCCCN1CCCC1 [Cediranib] (10 nM),109,96.3,106,107,108,88.3,138,119,103,90.9,111,106,97.7,95.1,113,101,104,92.7,103,105,108,107,100,97.9,104,99.5,101,104,107,110,107,104,103,88.5,102,113,105
Cc1ccc(-c2cc(C(F)(F)F)nn2-c2ccc(S(N)(=O)=O)cc2)cc1 [Celecoxib] (100 nM),111,99.5,93.2,104,101,102,89.2,106,71.4,101,96.8,98.7,101,102,95.6,98.9,90.5,110,99,101,95.4,110,94.7,97.8,98.9,94,97.4,102,97.6,111,104,103,103,98.1,104,100,95.4
O=C(/C=C/c1cccnc1)NCCCCC1CCN(C(=O)c2ccccc2)CC1 [Daporinad] (10 nM),112,95.6,95.4,105,105,96,106,101,93.7,105,21.9,84.7,101,100,101,58.3,,115,97,91.5,115,21.1,74.4,41.6,1.06,42.5,105,103,44.6,18.4,5.44,30.4,56.2,4.73,45.2,102,96.1
Nc1ncn([C@H]2C[C@H](O)[C@@H](CO)O2)c(=O)n1 [Decitabine] (100 nM),76,94.3,91.8,95.8,56.6,105,89.8,91.4,90.2,104,109,107,97.5,90.5,106,105,,82.4,103,105,93.1,107,94.9,101,52.5,93.2,96.5,91.2,97.3,104,104,94.9,99.4,113,104,92.2,106
Nc1nc(F)nc2c1ncn2[C@@H]1O[C@H](CO)[C@@H](O)[C@@H]1O [Fludarabine] (100 nM),109,99.6,116,108,101,98.4,131,116,101,101,99.5,104,105,101,108,119,,94.1,106,119,107,120,98.8,113,113,98.3,101,108,101,107,111,106,101,122,102,102,107
C=CC(=O)N1CCC[C@@H](n2nc(-c3ccc(Oc4ccccc4)cc3)c3c(N)ncnc32)C1 [Ibrutinib] (10 nM),112,96.3,110,77.9,107,63.2,92.8,118,100,95.8,93.2,100,101,98.7,107,114,87,113,104,108,109,87.3,89,102,98.4,94.2,103,67.4,99.5,106,110,100,106,105,105,99.8,84.5
